Results: patent US20050038058A1, “Novel compounds and methods for therapy” (Institute of Organic Chemistry and Biochemistry, priority 2001, published 2005)
≈ marks a conversion by molar mass, not a printed value. Like-named read-outs stand apart in the source and are kept apart here.

Assays:
[1] = tested on: HIV-1(IIIB) strains containing L100I, K103N, Y181C and Y188H mutations in the RT; assay: HIV-1(IIIB) strains with NNRTI-specific RT mutations in CEM cell cultures; assay type: cell-based; conditions: data not shown
Description: (§1) In vitro antiviral assays. The activity against HIV-1- and HIV-2-induced cytopathicity was examined in MT-4 cell cultures at day 5 post infection and based on the determination of cell viability by trypan blue dye staining or in CEM cell cultures at day 4 to 5 post infection and based on the microscopical examination of virus-induced giant cell formation. HIV-1 and HIV-2 were added at 100 CCID50 to the cell cultures.

HIV-2(ROD) = assay: HIV-2(ROD)-induced cytopathicity in CEM cell cultures; assay type: cell-based; conditions: Human immunodeficiency virus 2, CCRF-CEM, read-out: EC50 HIV-2 (ROD) (CEM)
Excerpt: (§2) Viruses. The origins of MSV, HIV type 1 (HIV-1) (strain IIIB and Ba-L), HIV-2 (strain ROD) and FIV (strain Petaluma) have been described previously (Balzarini et al., AIDS 5: 21-28, 1991; De Clercq et al., Proc. Soc. Exp. Biol. Med. 137:590-594, 1971; Egberink et al., Proc. Natl. Acad. Sci. 87:3087-3091, 1990; Hartmann et al., Antiviral Chem. Chemother. 5:13-19, 1994; Popovic et al., Science 224:497-500, 1984). HIV-1(IIIB) and HIV-2(ROD) stocks were obtained from supernatants of virus-infected MT-4 cell cultures. HIV-1BaL was expanded in human primary M/M, whose supernatants were collected, filtered and stored at −80° C. before use. Characteristics of viral stocks used for this study were 2.1×10^8 HIV-RNA genomes/ml (corresponding to 35 ng of p24 antigen) and 5,000 tissue culture infectious doses 50% per ml (TCID50/ml) as assessed by virus titration in other primary M/M cultures. The isolation and characterization of the clinical HIV-1 isolates L1S, L6S and L6S/PMEA has been reported (Thormar et al., Proc. Natl. Acad. Sci. USA 93:3283-3287, 1995; Van Laethem et al., AIDS 15:553-561, 2001). […] HIV-1/L6S/PMEA is the clinical isolate HIV-1/L6S that has been isolated after culturing the virus for 11 passages in the presence of increasing concentrations of PMEA (adefovir).
as §1

Cell viability in PBL = assay type: cell-based; conditions: human, reduction of cell viability, Table 2
[2] = Cell viability in monocyte/macrophages (M/M); assay type: cell-based, human; conditions: human
[3] = MT-4 cell toxicity (trypan blue exclusion); assay type: cell-based; conditions: human, reduction of cell viability, Table 2
Description: Cytostatic and antimetabolic effect of acyclic nucleoside phosphonates in vitro. The assays to examine the inhibition of CEM cell growth by the test compounds have been described previously (Balzarini et al., AIDS 5:21-28, 1991). The 50% cytostatic concentration (CC50) was defined as the concentration of compound that reduced the number of living cells by 50% . To measure MT-4 cell toxicity of the test compounds, 5×10^4 MT-4 cells were incubated in the wells of 96-well microplates in the presence or absence of different concentrations of the test compounds for 5 days at 37° C. The CC50 was then calculated from the number of living cells counted under a microscope by the trypan blue exclusion method.

CEM cells = assay: Incorporation of [3H]thymidine, [3H]uridine and [3H]leucine into CEM cell material; assay type: cell-based; conditions: 200 μg/mL; 12 hour incubation period
Description: The incorporation of [methyl-^3H]thymidine, [^3H]uridine and [^3H]leucine into the methanol-insoluble CEM cell fraction was also measured in microplates. To each well were added 10^5 CEM cells, 5.9 pmol (0.25 μCi) of [methyl-^3H]thymidine, 38 pmol (1.0 μCi) of [^3H]uridine and 19 pmol (1.0 μCi) [4,5-^3H]leucine, and a given amount of the test compound. […] At the end of this incubation period, the contents of the wells (200 μl) were brought onto 25-mm glass fiber filters (type A/G; Gelman Instrument Co., Ann Arbor, Mich.) mounted on a Millipore 3025 sampling manifold apparatus. The filters were washed twice with cold PBS (phosphate-buffered saline), twice with cold 10% trichloroacetic acid, twice with cold 5% trichloroacetic acid, once with cold ethanol, and once with cold ether. The filters were then allowed to dry for 10 min at 60° C. and assayed for radioactivity in a toluene-based scintillant.

HIV-1(IIIB) [4] = assay: HIV-1(IIIB) p24 antigen production in PBL (PHA-stimulated PBMC); assay type: cell-based; conditions: Human immunodeficiency virus 1, IIIB, PBMC
Description: Peripheral blood mononuclear cells (PBMC) from healthy donors were isolated by density centrifugation (Lymphoprep; Nycomed Pharma, AS Diagnostics, Oslo, Norway) and stimulated with phytohemagglutin (PHA) (Sigma Chemical Co., Bornem, Belgium) for 3 days. The activated cells (PHA-stimulated blasts) were washed with PBS and viral infections were done as described by the AIDS clinical trial group protocols. Briefly, PBMCs (2×10^5/200 well) were plated in the presence of serial dilutions of the test compound and were infected with HIV stocks at 1000 CCID50 per mL. At day 4 post-infection, 125 μl of the supernatant of the infected cultures was removed and replaced with 150 μl of fresh medium containing the test compounds at the appropriate concentrations. At 7 days after plating the cells, p24 antigen was detected in the culture supernatant by an enzyme-linked immunosorbent assay (NEN, Paris, France).

HIV-1(IIIB) [5] = assay: HIV-1(IIIB)-induced cytopathicity in CEM cell cultures; assay type: cell-based
Excerpt: as §2, §1

[6] = Alteration of C3H cell morphology (minimal inhibitory concentration); assay type: cell-based, murine; conditions: mouse, microscopically visible alteration of cell morphology, > means no visible toxicity at the indicated concentration, read-out: CC50 C3H (minimal inhibitory concentration)
C3H cells = assay: as above; assay type: cell-based, murine; conditions: Table 2, footnote c
HIV = assay: Anti-HIV activity across HIV-1 and HIV-2 in CEM and MT-4 cell cultures; assay type: cell-based; conditions: Human immunodeficiency virus 1, MT4; HIV-1 and HIV-2 in CEM and MT-4 cells; read-out: EC50 values for HIV (range over virus/cell systems)
Description: as §1

[7] = p24 antigen production, Table 2, read-out: EC50 HIV-1 (IIIB) (PBL)
[8] = read-out: EC50 HIV-1(IIIB) in PBL
[9] = Human immunodeficiency virus 1, CCRF-CEM, HIV-1 (IIIB) in CEM, no addition, Table 3, read-out: EC50 as such
[10] = Human immunodeficiency virus 1, CCRF-CEM, HIV-1 (IIIB) in CEM, Ade 100 μM, read-out: EC50 upon addition of Ade (100 μM)
[11] = Human immunodeficiency virus 1, CCRF-CEM, HIV-1 (IIIB) in CEM, Ado 400 μM, read-out: EC50 upon addition of Ado (400 μM)
[12] = Human immunodeficiency virus 1, CCRF-CEM, HIV-1 (IIIB) in CEM, Guo 10 μM, read-out: EC50 upon addition of Guo (10 μM)
[13] = Human immunodeficiency virus 1, CCRF-CEM, HIV-1 (IIIB) in CEM, dCyd 1 mM, read-out: EC50 upon addition of dCyd (1 mM)
[14] = Human immunodeficiency virus 1, CCRF-CEM, HIV-1 (IIIB) in CEM, dThd 10 μM, read-out: EC50 upon addition of dThd (10 μM)
[15] = Human immunodeficiency virus 1, CCRF-CEM, HIV-1(IIIB)-induced cytopathicity in CEM cell cultures, Table 1, read-out: EC50 HIV-1 (CEM)
[16] = Human immunodeficiency virus 1, IIIB, CCRF-CEM, giant cell formation, mean ±SD of 2 to 4 experiments, Table 2, read-out: EC50 HIV-1 (IIIB) (CEM)
[17] = C3H/3T3 embryo fibroblast cells

Row | SMILES | Activity against NNRTI-specific mutant virus strains, in words [1] | EC50 (HIV-2(ROD)) [µg/mL] | CC50 at 5 days ([3]; MT-4 cells) [µg/mL] | Inhibition of [3H]dThd, [3H]Urd and [3H]leu incorporation into TCA-insoluble CEM cell material (macromolecular synthesis) (CEM cells) | EC50 (HIV-1(IIIB) [4]; [7]) [µg/mL] | EC50 (HIV-1(IIIB) [4]; [8]) [µg/mL] | EC50 (HIV-1(IIIB) [5]; [9]) [µg/mL] | EC50 (HIV-1(IIIB) [5]; [10]) [µg/mL] | EC50 (HIV-1(IIIB) [5]; [11]) [µg/mL] | EC50 (HIV-1(IIIB) [5]; [12]) [µg/mL] | EC50 (HIV-1(IIIB) [5]; [13]) [µg/mL] | EC50 (HIV-1(IIIB) [5]; [14]) [µg/mL] | EC50 (HIV-1(IIIB) [5]; [15]) [µg/mL] | EC50 (HIV-1(IIIB) [5]; [16]) [µg/mL] | Minimal concentration causing visible cell morphology alteration [6, 17] [µg/mL] | Compound concentration at which morphological toxicity was observed, C3H (value between parentheses) (C3H cells) [μg/ml] | EC50 (HIV) [µg/mL] | further results
1 | Nc1cc(OCCOCP(=O)(O)O)nc(N)n1 [Compound 1, 2,4-diamino-6-[2-(phosphonomethoxy)ethoxy]pyrimidine] | retained full activity | 0.66 ± 0.19 (≈ 2.5 µM) | 46 ± 7.4 (≈ 174 µM) | Neither compounds 1 nor 2, nor compound 11 were inhibitory | 0.07 ± 0.02 (≈ 0.265 µM) | 0.07 (≈ 0.265 µM) | 0.77 ± 0.25 (≈ 2.91 µM) | 0.26 ± 0.16 (≈ 0.984 µM) | 0.63 ± 0.29 (≈ 2.38 µM) | 0.65 ± 0.21 (≈ 2.46 µM) | 0.55 ± 0.35 (≈ 2.08 µM) | 0.35 ± 0.07 (≈ 1.32 µM) | 0.8 (≈ 3.03 µM) | 0.9 ± 0.4 (≈ 3.41 µM) | > 40 | 200 | 0.29 to 0.8 (≈ 1.1 to 3.03 µM) | CC50 (Cell viability in PBL; PHA-stimulated peripheral blood mononuclear cells (PBL)): 2.2 ± 0.8 µg/mL (≈ 8.33 µM); CC50 [2]: > 100 µg/mL
2 | Nc1cc(SCCOCP(=O)(O)O)nc(N)n1 [Compound 2, 2,4-diamino-6-{[2-(phosphonomethoxy)ethyl]-sulfanyl}pyrimidine] | retained full activity | 3 ± 1.4 (≈ 10.7 µM) | ≥ 100 | Neither compounds 1 nor 2, nor compound 11 were inhibitory | – | – | 1.9 ± 0.75 (≈ 6.78 µM) | 3.3 ± 3.2 (≈ 11.8 µM) | 4.4 ± 2.8 (≈ 15.7 µM) | 1.9 ± 0.49 (≈ 6.78 µM) | 2.1 ± 1.7 (≈ 7.49 µM) | 1.4 ± 0.21 (≈ 5 µM) | 5.5 (≈ 19.6 µM) | 4.6 ± 3.1 (≈ 16.4 µM) | > 40 | 200 | – | –
3 | Nc1ncnc2c1ncn2CCOCP(=O)(O)O [PMEA, 9-[(2-phosphono-methoxy)ethyl]adenine, reference compound] | – | – | – | not inhibitory | 0.55 ± 0.41 (≈ 2.01 µM) | 1.9 (≈ 6.95 µM) | 0.94 ± 0.24 (≈ 3.44 µM) | 1.9 ± 1.3 (≈ 6.95 µM) | 1.6 ± 0.4 (≈ 5.86 µM) | 1 ± 0.8 (≈ 3.66 µM) | 2.1 ± 0.19 (≈ 7.69 µM) | 1.4 ± 0.4 (≈ 5.12 µM) | 0.96 (≈ 3.51 µM) | 0.96 ± 0.24 (≈ 3.51 µM) | – | 200 | 0.96 to 2 (≈ 3.51 to 7.32 µM) | EC50 (HIV-2(ROD); giant cell formation, Table 2): 1.9 ± 1.1 µg/mL (≈ 6.95 µM); CC50 (Cell viability in PBL): 1.7 ± 0.4 µg/mL (≈ 6.22 µM); CC50 ([2]; reduction of cell viability, Table 2, read-out: CC50 M/M): > 100 µg/mL; CC50 at 5 days [3]: 28 ± 12 µg/mL (≈ 102 µM); Minimal concentration causing visible cell morphology alteration [6]: > 40 µg/mL
